Measurements as given in ChEMBL document CHEMBL2429821, “A Casein kinase 1/Checkpoint kinase 1 pyrazolo-pyridine protein kinase inhibitor as novel activator of the p53 pathway” (Bioorg Med Chem Lett, 2013).

What was measured:
[1] = biological target: Mitogen-activated protein kinase 8 (Homo sapiens) (UniProt P45983); test: Inhibition of human JNK1 assessed as residual activity at 1 uM relative to control
[2] = biological target: Fibroblast growth factor receptor 1 (Homo sapiens, UniProt P11362); test: Inhibition of human FGFR1 assessed as residual activity at 1 uM relative to control
Sequence of Fibroblast growth factor receptor 1 (P11362 22-822 limits assumed): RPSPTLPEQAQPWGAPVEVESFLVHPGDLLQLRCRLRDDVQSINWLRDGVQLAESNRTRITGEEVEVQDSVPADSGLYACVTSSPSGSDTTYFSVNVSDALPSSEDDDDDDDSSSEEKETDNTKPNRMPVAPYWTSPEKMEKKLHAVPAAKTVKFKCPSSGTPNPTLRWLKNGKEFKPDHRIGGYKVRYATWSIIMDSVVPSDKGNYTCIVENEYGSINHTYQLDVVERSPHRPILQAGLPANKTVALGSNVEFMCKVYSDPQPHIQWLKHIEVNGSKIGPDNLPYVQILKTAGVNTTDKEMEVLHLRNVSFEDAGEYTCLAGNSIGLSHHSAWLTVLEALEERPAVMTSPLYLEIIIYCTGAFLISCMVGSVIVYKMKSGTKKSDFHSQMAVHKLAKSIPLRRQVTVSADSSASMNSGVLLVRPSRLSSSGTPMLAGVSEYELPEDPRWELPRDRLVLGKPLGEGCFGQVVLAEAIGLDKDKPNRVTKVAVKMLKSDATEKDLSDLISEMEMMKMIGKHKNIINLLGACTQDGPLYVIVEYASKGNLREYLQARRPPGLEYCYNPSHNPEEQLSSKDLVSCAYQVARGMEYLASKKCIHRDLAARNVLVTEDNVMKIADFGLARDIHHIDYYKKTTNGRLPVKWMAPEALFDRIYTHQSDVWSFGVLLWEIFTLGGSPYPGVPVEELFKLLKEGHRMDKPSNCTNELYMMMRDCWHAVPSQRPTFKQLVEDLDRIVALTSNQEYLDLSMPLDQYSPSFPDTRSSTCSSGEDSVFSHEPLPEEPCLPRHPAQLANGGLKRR

[3] = biological target: T1, Eukaryotic elongation factor 2 kinase (Homo sapiens) (UniProt O00418); test: Inhibition of human EF2K assessed as residual activity at 1 uM relative to control
T1 sequence (whole entry): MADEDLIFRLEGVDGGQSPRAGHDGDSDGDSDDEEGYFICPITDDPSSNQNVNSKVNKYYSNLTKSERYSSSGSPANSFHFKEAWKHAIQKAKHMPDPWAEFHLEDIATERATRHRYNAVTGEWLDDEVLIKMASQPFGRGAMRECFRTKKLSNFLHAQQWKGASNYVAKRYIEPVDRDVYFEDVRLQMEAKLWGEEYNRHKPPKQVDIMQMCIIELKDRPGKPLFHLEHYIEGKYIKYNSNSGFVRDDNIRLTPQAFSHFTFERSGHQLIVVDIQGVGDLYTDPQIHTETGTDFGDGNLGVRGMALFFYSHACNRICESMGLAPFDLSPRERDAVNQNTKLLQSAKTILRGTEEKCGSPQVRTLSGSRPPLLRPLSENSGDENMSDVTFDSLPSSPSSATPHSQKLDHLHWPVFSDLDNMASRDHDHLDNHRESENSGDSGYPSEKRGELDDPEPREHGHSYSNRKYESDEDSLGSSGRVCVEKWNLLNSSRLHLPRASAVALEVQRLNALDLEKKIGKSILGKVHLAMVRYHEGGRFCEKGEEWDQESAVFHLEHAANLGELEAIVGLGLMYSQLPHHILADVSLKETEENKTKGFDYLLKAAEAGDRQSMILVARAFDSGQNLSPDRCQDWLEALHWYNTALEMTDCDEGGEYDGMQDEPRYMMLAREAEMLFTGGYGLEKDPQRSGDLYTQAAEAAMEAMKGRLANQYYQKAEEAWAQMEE

[4] = biological target: Calcium/calmodulin-dependent protein kinase type 1 (Homo sapiens) (UniProt Q14012); test: Inhibition of human CAMK1 assessed as residual activity at 1 uM relative to control
Sequence of Calcium/calmodulin-dependent protein kinase type 1 (Homo sapiens) (Q14012 whole entry, looked up): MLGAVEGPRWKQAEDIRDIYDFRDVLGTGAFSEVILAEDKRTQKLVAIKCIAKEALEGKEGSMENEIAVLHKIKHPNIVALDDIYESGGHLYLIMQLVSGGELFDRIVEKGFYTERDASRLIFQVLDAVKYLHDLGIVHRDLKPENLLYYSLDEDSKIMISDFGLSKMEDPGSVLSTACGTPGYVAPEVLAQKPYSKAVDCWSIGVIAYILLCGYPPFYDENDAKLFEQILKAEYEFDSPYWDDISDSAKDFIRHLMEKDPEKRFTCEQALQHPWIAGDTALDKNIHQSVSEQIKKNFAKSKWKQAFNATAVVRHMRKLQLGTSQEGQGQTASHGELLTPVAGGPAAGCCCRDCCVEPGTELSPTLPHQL

[5] = biological target: Ribosomal protein S6 kinase alpha-5 (Homo sapiens) (UniProt O75582); test: Inhibition of human MSK1 assessed as residual activity at 10 uM relative to control
Sequence of Ribosomal protein S6 kinase alpha-5 (Homo sapiens) (O75582 whole entry, looked up): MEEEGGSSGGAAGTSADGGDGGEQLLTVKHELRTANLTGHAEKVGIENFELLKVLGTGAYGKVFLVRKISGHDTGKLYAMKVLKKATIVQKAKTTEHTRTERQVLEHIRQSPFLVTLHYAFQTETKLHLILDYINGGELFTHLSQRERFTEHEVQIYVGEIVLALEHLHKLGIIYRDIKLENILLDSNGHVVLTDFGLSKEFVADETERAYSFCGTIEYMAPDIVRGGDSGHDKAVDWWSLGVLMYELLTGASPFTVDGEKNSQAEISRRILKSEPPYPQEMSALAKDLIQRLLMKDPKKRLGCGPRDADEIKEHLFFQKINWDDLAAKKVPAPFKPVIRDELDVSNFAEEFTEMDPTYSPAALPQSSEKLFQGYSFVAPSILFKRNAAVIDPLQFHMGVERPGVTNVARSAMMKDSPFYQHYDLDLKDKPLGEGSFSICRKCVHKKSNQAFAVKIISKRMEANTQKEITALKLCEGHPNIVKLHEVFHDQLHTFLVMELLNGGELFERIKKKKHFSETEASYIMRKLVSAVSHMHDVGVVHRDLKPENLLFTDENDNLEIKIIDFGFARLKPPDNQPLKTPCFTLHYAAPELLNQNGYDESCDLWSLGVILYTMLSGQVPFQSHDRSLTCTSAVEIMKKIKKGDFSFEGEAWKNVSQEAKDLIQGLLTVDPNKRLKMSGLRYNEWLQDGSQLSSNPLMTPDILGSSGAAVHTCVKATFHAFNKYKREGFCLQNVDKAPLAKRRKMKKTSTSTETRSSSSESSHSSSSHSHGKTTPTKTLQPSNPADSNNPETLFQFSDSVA

[6] = biological target: T2, Serine/threonine-protein kinase TBK1 (Homo sapiens) (UniProt Q9UHD2); test: Inhibition of human TBK1 assessed as residual activity at 1 uM relative to control
T2 sequence (whole entry): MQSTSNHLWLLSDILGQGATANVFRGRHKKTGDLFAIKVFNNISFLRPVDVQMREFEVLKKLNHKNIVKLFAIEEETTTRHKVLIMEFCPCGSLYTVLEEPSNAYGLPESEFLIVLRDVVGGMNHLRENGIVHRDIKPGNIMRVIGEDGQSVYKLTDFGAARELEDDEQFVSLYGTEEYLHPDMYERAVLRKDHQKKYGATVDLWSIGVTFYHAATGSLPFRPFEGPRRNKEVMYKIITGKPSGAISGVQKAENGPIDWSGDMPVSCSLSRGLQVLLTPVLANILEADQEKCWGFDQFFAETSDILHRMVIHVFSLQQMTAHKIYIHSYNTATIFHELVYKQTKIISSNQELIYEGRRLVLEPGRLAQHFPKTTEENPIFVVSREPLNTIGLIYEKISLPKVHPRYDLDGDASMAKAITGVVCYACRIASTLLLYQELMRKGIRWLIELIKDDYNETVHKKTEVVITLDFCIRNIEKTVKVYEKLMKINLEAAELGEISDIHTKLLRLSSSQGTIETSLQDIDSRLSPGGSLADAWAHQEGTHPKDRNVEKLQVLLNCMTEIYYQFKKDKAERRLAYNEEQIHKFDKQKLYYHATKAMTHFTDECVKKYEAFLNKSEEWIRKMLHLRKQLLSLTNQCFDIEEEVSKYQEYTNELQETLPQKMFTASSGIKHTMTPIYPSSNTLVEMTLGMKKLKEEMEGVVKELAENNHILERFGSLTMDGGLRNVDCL

[7] = biological target: T3, Serine/threonine-protein kinase Nek2 (Homo sapiens) (UniProt P51955); test: Inhibition of human NEK2alpha assessed as residual activity at 1 uM relative to control
T3 sequence (whole entry): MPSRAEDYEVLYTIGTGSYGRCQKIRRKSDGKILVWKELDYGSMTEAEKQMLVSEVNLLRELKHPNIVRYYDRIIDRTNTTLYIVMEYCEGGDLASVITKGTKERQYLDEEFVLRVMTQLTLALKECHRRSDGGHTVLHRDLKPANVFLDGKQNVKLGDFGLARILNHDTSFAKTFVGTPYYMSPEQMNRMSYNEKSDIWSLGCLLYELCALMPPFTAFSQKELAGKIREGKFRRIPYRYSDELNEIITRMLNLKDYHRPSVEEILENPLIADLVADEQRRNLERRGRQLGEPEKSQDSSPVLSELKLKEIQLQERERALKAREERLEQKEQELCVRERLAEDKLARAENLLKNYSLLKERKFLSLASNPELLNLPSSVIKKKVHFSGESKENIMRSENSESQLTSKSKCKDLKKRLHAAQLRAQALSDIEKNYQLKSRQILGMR

[8] = biological target: Casein kinase I isoform delta (Rattus norvegicus) (UniProt Q06486); test: Inhibition of rat CK1delta assessed as residual activity at 1 uM relative to control
Sequence of Casein kinase I isoform delta (Rattus norvegicus) (Q06486 whole entry, looked up, canonical isoform): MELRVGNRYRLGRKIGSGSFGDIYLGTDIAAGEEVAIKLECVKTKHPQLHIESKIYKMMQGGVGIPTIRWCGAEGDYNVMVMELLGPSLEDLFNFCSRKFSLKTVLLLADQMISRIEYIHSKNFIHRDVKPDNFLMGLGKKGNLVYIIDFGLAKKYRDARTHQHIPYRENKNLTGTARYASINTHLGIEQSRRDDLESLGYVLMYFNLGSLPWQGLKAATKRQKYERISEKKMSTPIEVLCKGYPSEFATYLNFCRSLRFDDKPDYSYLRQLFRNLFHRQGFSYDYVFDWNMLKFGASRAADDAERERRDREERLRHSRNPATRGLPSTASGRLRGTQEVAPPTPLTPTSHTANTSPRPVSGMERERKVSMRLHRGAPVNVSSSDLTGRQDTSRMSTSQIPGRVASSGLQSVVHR

[9] = biological target: T4, Serine/threonine-protein kinase Chk1 (Homo sapiens) (UniProt O14757); test: Inhibition of human CHK1 assessed as residual activity at 1 uM relative to control
T4 sequence (whole entry): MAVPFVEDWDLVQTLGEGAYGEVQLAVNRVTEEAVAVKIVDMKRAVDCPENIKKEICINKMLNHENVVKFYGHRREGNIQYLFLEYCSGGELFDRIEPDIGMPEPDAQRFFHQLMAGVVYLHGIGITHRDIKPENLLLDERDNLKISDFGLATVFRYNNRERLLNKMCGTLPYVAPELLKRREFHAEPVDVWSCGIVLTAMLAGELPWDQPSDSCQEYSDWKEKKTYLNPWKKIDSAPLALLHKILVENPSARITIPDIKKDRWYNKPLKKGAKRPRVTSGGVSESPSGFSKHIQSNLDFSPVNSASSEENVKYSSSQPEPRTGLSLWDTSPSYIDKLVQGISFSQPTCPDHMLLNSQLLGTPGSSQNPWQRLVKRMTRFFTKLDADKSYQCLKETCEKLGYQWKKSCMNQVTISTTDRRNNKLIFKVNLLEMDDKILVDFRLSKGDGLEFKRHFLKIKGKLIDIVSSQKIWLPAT

[10] = biological target: Cyclin-dependent kinase 2 (Homo sapiens) (UniProt P24941); test: Inhibition of human CDK2 assessed as residual activity at 1 uM relative to control
[11] = biological target: Dual specificity tyrosine-phosphorylation-regulated kinase 1A (Rattus norvegicus) (UniProt Q63470); test: Inhibition of rat DYRK1alpha assessed as residual activity at 10 uM relative to control

Sequence of Mitogen-activated protein kinase 8 (Homo sapiens) (P45983 whole entry): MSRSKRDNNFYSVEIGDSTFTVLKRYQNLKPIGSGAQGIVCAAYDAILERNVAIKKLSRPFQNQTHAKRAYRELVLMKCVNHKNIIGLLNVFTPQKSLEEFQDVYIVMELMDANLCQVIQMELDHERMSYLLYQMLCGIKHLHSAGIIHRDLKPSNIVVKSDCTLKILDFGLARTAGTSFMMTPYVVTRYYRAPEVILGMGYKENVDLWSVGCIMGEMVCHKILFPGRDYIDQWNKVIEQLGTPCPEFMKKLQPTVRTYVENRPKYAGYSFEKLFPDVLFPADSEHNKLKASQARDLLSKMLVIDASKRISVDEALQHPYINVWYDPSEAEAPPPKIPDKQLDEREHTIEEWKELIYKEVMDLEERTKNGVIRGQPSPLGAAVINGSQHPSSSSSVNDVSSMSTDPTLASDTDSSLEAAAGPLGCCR

Row | SMILES | Activity [1] | Activity [2] | Activity [3] | Activity [4] | Activity [5] | Activity [6] | Activity [7] | Activity [8] | Activity [9] | Activity [10] | Activity [11]
1 | CC(=O)Nc1cccc(-c2cnc3[nH]nc(C)c3c2)c1 | 93.3% | 107% | 112% | 111% | 63.5% | 88.9% | 53.5% | 32.7% | 31.5% | 76.7% | 39.9%
2 | CC(=O)Nc1nccc(-c2c(-c3ccccc3)noc2C)n1 | 67% | 99.8% | 83.2% | 103% | 67.1% | 106% | 85.8% | 44.4% | 80.6% | 92.2% | 102%
3 | CCCC(=O)Nc1n[nH]c2ncc(-c3cccnc3)cc12 | 97% | 92% | 106% | 93% | 78% | 91% | 97% | 73% | 92% | 9% | 2%
